Test results reported in US20210348086A1, “COMPOSITION” (Conopco Inc., d/b/a UNILEVER, priority 2018, published 2021).

Test system: bacterial pool: Burkholderia cepacia, Pseudomonas aeruginosa, Psuedomonas putida, Acinetobacter lwoffii
Experiment: Modified preservative challenge test (Ph. Eur. 5.1.3) in laundry liquid, Total Viable Count pour plate
Format: cell-based
Details: for Preservation of a laundry liquid composition (result in words): summary of the challenge test data set
Description: A modified challenge that complies with the current European Pharmacopoeia (Ph. Eur. Or EP) 5.1.3 criteria was performed on a subsample of both the unpreserved and each dosed product. The bacterial pool was added to each sample container at a ratio of 1:100. The final concentration of inoculum in the product should be between 5×10^5 and 5×10^6 CFU/G of test product. Each product is mixed with a sterile spatula to ensure a homogenous distribution of the inocula throughout the product. [table] Both the inoculum level and the level of microorganism within each sample was quantified using a Total Viable Count (TVC) pour plate method at 7, 14, 21 and 28 days. A 1:10 dilution was made with a subsample of each product, performed separately in Peptone (0.1%)/tween 80 (2%) neutralising agent. A 1:10 and 1:100 dilution of each subsample was performed and pour plates produced at each dilution using tryptone soya agar. Plates were incubated at 28° C. for 48 hours and then examined for growth. Visible colonies were counted with the aid of a Quebec Colony Counter and recorded for analysis against the challenge test criteria. During the removal of a subsample of product for TVC, a re-inoculation is performed at 7 and 14 days, reintroducing 5×10^6 CFU/G of bacteria before mixing using a sterile spatula to homogenise the re-inoculation.

[1] = 0.5% in Example 1 laundry liquid, 7 days
[2] = 0.5% in Example 1 laundry liquid, 14 days, re-inoculated at 7 days
[3] = 0.5% in Example 1 laundry liquid, 21 days, re-inoculated at 7 and 14 days
[4] = 0.5% in Example 1 laundry liquid, 28 days, re-inoculated at 7 and 14 days
[5] = 1.0% in Example 1 laundry liquid, 7 days
[6] = 1.0% in Example 1 laundry liquid, 14 days, re-inoculated at 7 days
[7] = 1.0% in Example 1 laundry liquid, 21 days, re-inoculated at 7 and 14 days
[8] = 1.0% in Example 1 laundry liquid, 28 days, re-inoculated at 7 and 14 days

Compound | Microbial Log reduction [1] | Microbial Log reduction [2] | Microbial Log reduction [3] | Microbial Log reduction [4] | Microbial Log reduction [5] | Microbial Log reduction [6] | Microbial Log reduction [7] | Microbial Log reduction [8] | Preservation of a laundry liquid composition (result in words)
O=C(O)CC(O)(CC(=O)O)C(=O)O [Citric acid] | >5.59 | <2.54 | <2.56 | <2.56 | >5.59 | >5.54 | >5.56 | >5.56 | not capable of effectively preserving a laundry liquid composition
C=C(CC(=O)O)C(=O)O [Itaconic acid] | >5.59 | >5.54 | >5.56 | >5.56 | >5.59 | >5.54 | >5.56 | >5.56 | effective preservative
CC(O)C(=O)O (stereo not drawn) [Lactic acid] | >5.59 | 2.32 | <2.56 | <2.56 | >5.59 | >5.54 | >5.56 | >5.56 | not capable of effectively preserving a laundry liquid composition
